Assay results reported in PubChem BioAssay (NCI).
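Following 48 hours of exposure in 96-well plates, responses at five concentrations were used to interpolate endpoints linearly. The concentration for full growth arrest is given as TGI.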

Assays:
Assay in all cases: inhibition of tumour cell growth, NCI panel, 48 h
SF-295 CNS = system: SF-295 CNS
UO-31 renal = system: UO-31 renal
MCF7 breast = system: MCF7 breast
CCRF-CEM leukemia = system: CCRF-CEM leukemia
SW-620 colon = system: SW-620 colon
MDA-MB-435 = system: MDA-MB-435
UACC-257 melanoma = system: UACC-257 melanoma
UACC-62 melanoma = system: UACC-62 melanoma
PC-3 prostate = system: PC-3 prostate
SK-MEL-28 melanoma = system: SK-MEL-28 melanoma
HOP-92 NSCLC = system: HOP-92 NSCLC
IGROV1 ovarian = system: IGROV1 ovarian
RXF 393 renal = system: RXF 393 renal
HCT-15 colon = system: HCT-15 colon
HCT-116 colon = system: HCT-116 colon
A498 renal = system: A498 renal
SK-OV-3 ovarian = system: SK-OV-3 ovarian
LOX IMVI melanoma = system: LOX IMVI melanoma
K-562 leukemia = system: K-562 leukemia
SF-539 CNS = system: SF-539 CNS
MDA-N = system: MDA-N
NCI-H226 lung = system: NCI-H226 lung
COLO 205 colon = system: COLO 205 colon
EKVX NSCLC = system: EKVX NSCLC
OVCAR-3 ovarian = system: OVCAR-3 ovarian
CAKI-1 renal = system: CAKI-1 renal
OVCAR-4 ovarian = system: OVCAR-4 ovarian
TK-10 renal = system: TK-10 renal
T-47D breast = system: T-47D breast
KM12 colon = system: KM12 colon
OVCAR-8 ovarian = system: OVCAR-8 ovarian
SN12C renal = system: SN12C renal
DU-145 prostate = system: DU-145 prostate
SNB-75 CNS = system: SNB-75 CNS
SNB-19 CNS = system: SNB-19 CNS
MOLT-4 leukemia = system: MOLT-4 leukemia
786-0 renal = system: 786-0 renal
NCI/ADR-RES ovarian = system: NCI/ADR-RES ovarian
OVCAR-5 ovarian = system: OVCAR-5 ovarian
A549 NSCLC = system: A549 NSCLC
SR leukemia = system: SR leukemia
BT-549 breast = system: BT-549 breast
U251 CNS = system: U251 CNS
RPMI-8226 leukemia = system: RPMI-8226 leukemia
HT29 colon = system: HT29 colon
HS 578T breast = system: HS 578T breast
NCI-H522 lung = system: NCI-H522 lung
HL-60(TB) leukemia = system: HL-60(TB) leukemia
SK-MEL-5 melanoma = system: SK-MEL-5 melanoma
SK-MEL-2 melanoma = system: SK-MEL-2 melanoma
HOP-62 NSCLC = system: HOP-62 NSCLC
NCI-H460 lung = system: NCI-H460 lung

Measured: TGI

O=c1n(CCCN2CCOCC2)nc2n1-c1ccc3ccccc3c1SC2
81.1 µM: NCI-H460 lung
52.3 µM: NCI-H522 lung
67.2 µM: HCT-15 colon
41.2 µM: HT29 colon
45.7 µM: UO-31 renal
7.49 µM: COLO 205 colon
47.2 µM: UACC-62 melanoma
97.8 µM: HL-60(TB) leukemia
38.3 µM: 786-0 renal
80.8 µM: RPMI-8226 leukemia
24.1 µM: MDA-N
53 µM: LOX IMVI melanoma
42.1 µM: SF-295 CNS
47.7 µM: SK-MEL-5 melanoma
> 100 µM: all other assays above
